Experimental data as given in patent US12428415B2, “Matriptase 2 inhibitors and uses thereof” (Disc Medicine, Inc., priority 2018, dated 2025).

The compounds below were run against T1, Human Recombinant Matriptase 2 (Homo sapiens, UniProt Q8IU80) (assay: Matriptase 2 fluorescence based inhibition assay, Method A (100 mM TRIS pH 9, 1 mg/mL BSA)). Details: 1 uM compound; Assay Used = A; read-out: Mar-2 % inhibition at 1 uM.
T1 construct: purchased Enzo Life Sciences (an in-house preparation was also used) ALX-201-752-1
T1 sequence (Q8IU80 1-811): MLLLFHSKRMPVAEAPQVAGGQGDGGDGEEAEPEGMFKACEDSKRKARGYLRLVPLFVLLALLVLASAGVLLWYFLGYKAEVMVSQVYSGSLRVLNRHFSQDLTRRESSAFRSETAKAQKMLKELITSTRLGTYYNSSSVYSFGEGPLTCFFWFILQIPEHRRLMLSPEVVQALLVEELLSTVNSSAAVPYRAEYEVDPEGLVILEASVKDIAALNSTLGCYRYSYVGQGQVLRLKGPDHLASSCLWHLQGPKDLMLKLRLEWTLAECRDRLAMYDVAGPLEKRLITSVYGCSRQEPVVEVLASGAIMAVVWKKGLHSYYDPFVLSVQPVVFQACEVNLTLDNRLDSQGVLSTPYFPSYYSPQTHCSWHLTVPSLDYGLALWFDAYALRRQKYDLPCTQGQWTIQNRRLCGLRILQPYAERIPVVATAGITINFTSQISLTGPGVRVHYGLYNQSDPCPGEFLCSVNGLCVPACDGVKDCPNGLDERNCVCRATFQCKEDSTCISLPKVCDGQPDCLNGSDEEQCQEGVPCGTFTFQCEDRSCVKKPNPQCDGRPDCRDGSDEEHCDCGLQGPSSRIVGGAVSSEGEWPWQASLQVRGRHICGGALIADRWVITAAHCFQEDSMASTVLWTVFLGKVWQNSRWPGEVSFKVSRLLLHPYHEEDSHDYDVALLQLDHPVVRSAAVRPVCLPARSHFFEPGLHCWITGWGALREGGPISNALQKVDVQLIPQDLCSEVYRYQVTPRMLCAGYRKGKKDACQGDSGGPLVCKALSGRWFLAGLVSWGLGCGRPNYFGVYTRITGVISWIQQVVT
Format: biochemical
Method: Test compounds were evaluated for their potential to inhibit Human Recombinant Matriptase 2 (in-house and commercial protein from Enzo Life Sciences—cat log -ALX-201-752-1) using fluorescence based assay. The concentration of Recombinant Matriptase 2 and the substrate used in the assay was: 7 nM (commercial) and 15 nM (Inhouse Matriptase 2) and 100 μM (Boc-Gln-Ala-Arg-7-amido-4-methyl coumarin hydrobromide—Cat log: B4153-Sigma) respectively. The assay buffer used was 100 mM TRIS pH 9, 1 mg/mL BSA. The assay was performed using 384 well black flat bottom plate from grenier (Cat log: 781076) at 25° C. The enzyme and compound was preincubated for 30 mins, plate was read 60 mins after substrate addition at wavelength Ex: 360/Em: 480 nm. The final assay volume was 20 μl. Stock solution of compounds were initially prepared in DMSO and appropriate dilutions were made for screening and IC50 determination (final DMSO conc in the assay was 1%). All the measurements were carried out using the Spectramax M5, Molecular devices. The compounds were screened at 1 and 10 μM concentration and IC50 was determined for the interested compounds.
To determine IC50 values, dose response curves were generated by plotting percentage inhibition as a function of inhibitor concentration and the data was fitted to sigmoidal non-linear regression equation (variable slope) using Graph Pad prism software V7.

Row | SMILES | inhibition at 1 µM
1 | N/C(=N\O)c1ccc2cc(C(=O)N[C@H]3CC[C@H](N)CC3)n(Cc3ccc4ccccc4c3)c2c1 [Compound I-399] | 0 to 25%

Same assay, conditions: 1 uM; Assay Used A; read-out: Mar-2 % inhibition at 1 uM

Row | SMILES | inhibition at 1 µM
2 | N=C(N)c1ccc2cc(C(=O)Nc3ccc(Oc4ccccc4)cc3)n(Cc3ccc(C(N)=O)cc3)c2c1 [Compound I-65] | 0 to 25%
3 | C[C@H](NC(=O)c1cc2ccc(C(=N)N)cc2n1Cc1ccc(C(N)=O)cc1)c1ccc(Cl)cc1 [Compound I-98] | 0 to 25%
4 | N=C(N)c1ccc2cc(C(=O)N[C@H]3CC[C@H](N)CC3)n(Cc3ccc(C(=O)O)cc3)c2c1 [Compound I-20, 4-((2-(((1r,4r)-4-aminocyclohexyl)carbamoyl)-6-carbamimidoyl-1H-indol-1-yl)methyl)benzoic Acid] | 25 to 50%
5 | N=C(N)c1ccc2cc(C(=O)Nc3ccc(F)c(F)c3)n(Cc3ccc(C(N)=O)cc3)c2c1 [Compound I-87] | 0 to 25%
6 | N=C(N)c1ccc2c([N+](=O)[O-])c(C(=O)N[C@H]3CC[C@H](N)CC3)n(CCS(=O)(=O)c3ccccc3)c2c1 [Compound I-55, N-((1r,4r)-4-Aminocyclohexyl)-6-carbamimidoyl-3-nitro-1-(2-(phenylsulfonyl)ethyl)-1H-indole-2-carboxamide] | 0 to 25%
7 | C[C@@H](NC(=O)c1cc2ccc(C(=N)N)cc2n1Cc1ccc(C(N)=O)cc1)c1ccccc1 [Compound I-70] | 0 to 25%
8 | N=C(N)c1ccc2cc(C(=O)Nc3cccc(N4CCSCC4)c3)n(Cc3ccc(C(N)=O)cc3)c2c1 [Compound I-133] | 0 to 25%
9 | N=C(N)c1ccc2cc(C(=O)Nc3cccc(C(F)(F)F)c3)n(Cc3ccc(C(N)=O)cc3)c2c1 [Compound I-60] | 0 to 25%
10 | C[C@H](NC(=O)c1cc2ccc(C(=N)N)cc2n1Cc1ccc(C(N)=O)cc1)C1CCCCC1 [Compound I-193] | 0 to 25%
11 | C[C@H](NC(=O)c1cc2ccc(C(=N)N)cc2n1Cc1ccc(C(N)=O)cc1)c1ccc(F)c(F)c1 [Compound I-94] | 0 to 25%
12 | C#CCOc1cccc(NC(=O)c2cc3ccc(C(=N)N)cc3n2Cc2ccc(C(N)=O)cc2)c1 [Compound I-146] | 25 to 50%
13 | COc1cccc(NC(=O)c2cc3ccc(C(=N)N)cc3n2Cc2ccc(C(N)=O)cc2)c1 [Compound I-67] | 0 to 25%
14 | N=C(N)c1ccc2cc(C(=O)NCc3ccncc3)n(Cc3ccc(C(N)=O)cc3)c2c1 [Compound I-168] | 25 to 50%
15 | N=C(N)c1ccc2cc(C(=O)Nc3ccc(Br)cc3F)n(Cc3ccc(C(N)=O)cc3)c2c1 [Compound I-145] | 0 to 25%
16 | N=C(N)c1ccc2cc(C(=O)Nc3cccc(-n4ccc(C(F)(F)F)n4)c3)n(Cc3ccc(C(N)=O)cc3)c2c1 [Compound I-166] | 0 to 25%
17 | N=C(N)c1ccc2cc(C(=O)NC3CCN(CCCN)CC3)n(Cc3ccc(C(F)(F)F)cc3)c2c1 [Compound I-6, N-(1-(3-Aminopropyl)piperidin-4-yl)-6-carbamimidoyl-1-(4-(trifluoromethyl)benzyl)-1H indole-2-carboxamide] | 25 to 50%
18 | N=C(N)c1ccc2cc(C(=O)Nc3cccc(N4CCCC4)n3)n(Cc3ccc(C(N)=O)cc3)c2c1 [Compound I-180] | 25 to 50%

Same assay, conditions: at 1 uM; Assay Used = A; read-out: Mar-2 % inhibition at 1 uM

Row | SMILES | inhibition at 1 µM
19 | CC(C)CCn1c(C(=O)N2CCC(F)(F)C2)cc2ccc(C(=N)N)cc21 [Compound I-273] | 0 to 25%
20 | N=C(N)c1ccc2c(O)c(C(=O)NCC3CCCCC3)n(Cc3ccc(C(N)=O)cc3)c2c1 [Compound I-212, 6-Carbamimidoyl-1-(4-carbamoylbenzyl)-N-(cyclohexylmethyl)-3-hydroxy-1H-indole-2-carboxamide] | 0 to 25%
21 | CC1CCC(NC(=O)c2c(Cl)c3ccc(C(=N)N)cc3n2Cc2ccc(-c3ccccc3)cc2)CC1 (centres unmarked) [Compound I-237] | 0 to 25%
22 | N=C(N)c1ccc2cc(C(=O)N3CCc4ccccc4C3)n(Cc3cccc(NC(=O)CCN)c3)c2c1 [Compound I-365] | 0 to 25%
23 | CC1CCC(NC(=O)c2cc3ccc(C(=N)N)cc3n2Cc2ccc(C(=O)NC3CC3)cc2)CC1 (centres unmarked) [Compound I-219, 6-Carbamimidoyl-1-(4-(cyclopropylcarbamoyl)benzyl)-N-(4-methylcyclohexyl)-1H-indole-2-carboxamide] | 0 to 25%
24 | N=C(N)c1ccc2c(Cl)c(C(=O)N3CCC(F)CC3)n(Cc3ccc(C(N)=O)cc3)c2c1 [Compound I-355] | 0 to 25%
25 | CC(C)c1ccc(Cn2c(C(=O)N3CCC(CF)CC3)cc3ccc(C(=N)N)cc32)cc1 [Compound I-297] | 0 to 25%
26 | N=C(N)c1ccc2c(Br)c(C(=O)N[C@H]3CC[C@H](N)CC3)n(Cc3ccc(Oc4ccccc4)cc3)c2c1 [Compound I-250] | 25 to 50%
27 | N=C(N)c1ccc2cc(C(=O)N3CCCC(F)(F)C3)n(Cc3ccc(-c4ccccc4)cc3)c2c1 [Compound I-307] | 0 to 25%
28 | NC(=O)c1ccc(Cn2c(C(=O)Nc3cc(N4CCCC4)ccn3)cc3ccc(/C(N)=N/O)cc32)cc1 [Compound I-269, 1-(4-Carbamoylbenzyl)-6-(N′-hydroxycarbamimidoyl)-N-(4-(pyrrolidin-1-yl)pyridin-2-yl)-1H-indole-2-carboxamide] | 0 to 25%
29 | CCNC(=O)c1ccc(Cn2c(C(=O)N3CCC(F)CC3)cc3ccc(C(=N)N)cc32)cc1 [Compound I-390] | 0 to 25%
30 | CCNC(=O)c1ccc(Cn2c(C(=O)N3CCC(F)(F)C3)cc3ccc(C(=N)N)cc32)cc1 [Compound I-385, 4-((6-Carbamimidoyl-2-(3,3-difluoropyrrolidine-1-carbonyl)-1H-indol-1-yl)methyl)-N-ethylbenzamide] | 0 to 25%
31 | N=C(N)c1ccc2cc(C(=O)N3CCC(F)CC3)n(Cc3ccc(NC(=O)CCN)cc3)c2c1 [Compound I-373] | 0 to 25%
32 | N=C(N)c1ccc2cc(C(=O)N3CCC(CCNC(=O)c4ccccn4)CC3)n(Cc3ccc(C(F)(F)F)cc3)c2c1 [Compound I-286] | 0 to 25%
33 | CC1CCC(NC(=O)c2cc3ccc(C(=N)N)cc3n2Cc2ccc(C(=O)NCCO)cc2)CC1 (centres unmarked) [Compound I-223, 6-Carbamimidoyl-1-(4-((2-hydroxyethyl)carbamoyl)benzyl)-N-(4-methylcyclohexyl)-1H-indole-2-carboxamide] | 0 to 25%
34 | N=C(N)c1ccc2cc(C(=O)N3CCC(F)CC3)n(Cc3ccc(OC(F)(F)F)cc3)c2c1 [Compound I-289] | 0 to 25%
35 | N=C(N)c1ccc2cc(C(=O)N3CCC(F)CC3)n(Cc3cccc(NC(=O)CCN)c3)c2c1 [Compound I-366] | 0 to 25%
36 | CC(C)c1ccc(Cn2c(C(=O)N3CCC(F)CC3)cc3ccc(C(=N)N)cc32)cc1 [Compound I-295] | 0 to 25%
37 | N=C(N)c1ccc2cc(C(=O)N3CCC[C@@H](CF)C3)n(Cc3cccc(C(N)=O)c3)c2c1 [Compound I-325] | 0 to 25%
38 | NCCCC(=O)Nc1ccc(Cn2c(C(=O)N3CCC(CCN)CC3)cc3ccc(/C(N)=N/O)cc32)cc1 [Compound I-384] | 25 to 50%
39 | CC(C)CCn1c(C(=O)N2CCC(F)CC2)cc2ccc(C(=N)N)cc21 [Compound I-270, 2-(4-Fluoropiperidine-1-carbonyl)-1-isopentyl-1H-indole-6-carboximidamide] | 0 to 25%
40 | N=C(N)c1ccc2cc(C(=O)N3CCC(F)(F)C3)n(Cc3cccc(NC(=O)CCN)c3)c2c1 [Compound I-369] | 0 to 25%
41 | N=C(N)c1ccc2cc(C(=O)N3CCC(CCN)CC3)n(Cc3ccc(OC(F)(F)F)cc3)c2c1 [Compound I-288] | 0 to 25%
